Marks after values point to notes of the source that are not given here.
Columns and labels:
α5β3γ2 GABAA receptors = α5β3γ2 GABAA receptors (Rattus norvegicus, UniProt P18508+P19969); assay: Two-electrode voltage clamp in Xenopus oocytes, α5β3γ2; assay type: cell-based; conditions: concentrations approaching 100 nM; GABA EC3-5
α1β3γ2S GABAA receptors = α1β3γ2S GABAA receptors (Rattus norvegicus, UniProt P18508+P62813); assay: 3H-flunitrazepam competition binding, α1β3γ2S
Wistar rats [1] = assay: Elevated plus maze; assay type: in vivo, rat; conditions: 1 mg/kg to 10 mg/kg i.p., 5 min
Wistar rats [2] = assay: Rotarod test; assay type: in vivo, rat
α5β3γ2S GABAA receptors = α5β3γ2S GABAA receptors (Rattus norvegicus, UniProt P18508+P19969); assay: 3H-flunitrazepam competition binding, α5β3γ2S
Wistar rats [3] = assay: Amphetamine induced locomotor activity; assay type: in vivo, rat; conditions: 1, 2.5 and 10 mg/kg i.p.
α1β3γ2 GABAA receptors = α1β3γ2 GABAA receptors (Rattus norvegicus, UniProt P18508+P62813); assay: Two-electrode voltage clamp in Xenopus oocytes, α1β3γ2; assay type: cell-based; conditions: whole range of in vivo free brain concentrations obtained
α2β3γ2 GABAA receptors = α2β3γ2 GABAA receptors (Rattus norvegicus, UniProt P18508+P23576); assay: Two-electrode voltage clamp in Xenopus oocytes, α2β3γ2; assay type: cell-based
Wistar rats [4] = assay: Intravenous pentylenetetrazole infusion test; assay type: in vivo, rat
α3β3γ2 GABAA receptors = α3β3γ2 GABAA receptors (Rattus norvegicus, UniProt P18508+P20236); assay: Two-electrode voltage clamp in Xenopus oocytes, α3β3γ2; assay type: cell-based
non-α5GABAARs = assay: Two-electrode voltage clamp in Xenopus oocytes, non-α5 receptors; assay type: cell-based, rat; conditions: 100 nM effective concentration
[5] = In vitro hydrolytic stability study in rat plasma; assay type: in vitro ADME; conditions: for Total plasma concentration (in vitro metabolic stability): rat plasma 37 °C
α3β3γ2S GABAA receptors = α3β3γ2S GABAA receptors (Rattus norvegicus, UniProt P18508+P20236); assay: 3H-flunitrazepam competition binding, α3β3γ2S
[6] = Pharmacokinetic study, plasma and brain concentrations after i.p. injection
[7] = test system: 50 other receptor and enzyme assays; assay: NIMH PDSP screen, 50 other receptor and enzyme assays
Wistar rats [8] = assay: Grip strength; assay type: in vivo, rat; conditions: for Grip strength, peak force of experimenter's pull necessary to overcome the animal's grip: 20 min before testing
α2β3γ2S GABAA receptors = α2β3γ2S GABAA receptors (Rattus norvegicus, UniProt P18508+P23576); assay: 3H-flunitrazepam competition binding, α2β3γ2S
[9] = Plasma protein and brain tissue binding; assay type: in vitro ADME, rat; conditions: rat
[10] = only at concentrations of about 100 nM and above
[11] = rat i.p., MP-III-022 2.5 mg/kg vs SH-053-2′F-R-CH3 10 mg/kg

C#Cc1ccc2c(c1)C(c1ccccc1F)=N[C@H](C)c1c(C(=O)NC)ncn1-2 [MP-III-022, (R)-8-Ethynyl-6-(2-fluorophenyl)-N,4-dimethyl-4H-benzo[f]imidazo[1,5-a][1,4]diazepine-3-carboxamide]
Potentiation at α5β3γ2 (α5β3γ2 GABAA receptors): above 300%
Ki (α1β3γ2S GABAA receptors): 850 ± 110 nM
Elevated plus maze, closed and total arm entries (Wistar rats [1]): did not affect
Elevated plus maze, percent of open arm entries (Wistar rats [1]): did not affect
Elevated plus maze, percent of open arm time (Wistar rats [1]): did not affect
Elevated plus maze, total distance traveled (Wistar rats [1]): did not affect
Rotarod, time remaining on the rod revolving at 15 rpm (Wistar rats [2]; 10 mg/kg i.p.): 180 s
Rotarod, time remaining on the rod revolving at 15 rpm (Wistar rats [2]; 15 mg/kg MP-III-022 in combination with 20 mg/kg XLi-093, i.p.): 74.61 ± 34.03 s
Rotarod, time remaining on the rod revolving at 15 rpm (Wistar rats [2]; 15 mg/kg i.p.): 69.09 ± 25.58 s
Rotarod, time remaining on the rod revolving at 15 rpm (Wistar rats [2]; 20 mg/kg i.p.): 6.67 ± 4.81 s
Ki (α5β3γ2S GABAA receptors): 55 ± 17 nM
Selectivity in binding to α5GABAARs compared to α1-containing GABAA receptors (α5β3γ2S GABAA receptors; ratio of Ki values): 15 fold
Selectivity in binding to α5GABAARs compared to α2-containing GABAA receptors (α5β3γ2S GABAA receptors; ratio of Ki values): 6 fold
Selectivity in binding to α5GABAARs compared to α3-containing GABAA receptors (α5β3γ2S GABAA receptors; ratio of Ki values): 12 fold
Locomotor activity during 20 min before amphetamine treatment (Wistar rats [3]): did not show any effect of treatment
Influence on amphetamine's effects (hyperlocomotion, 0.5 mg/kg amphetamine) (Wistar rats [3]; 60 min): lack of influence
Modulatory actions at α1-containing GABAA receptors (α1β3γ2 GABAA receptors): lacked modulatory actions
Estimated potentiation at α2GABAARs (α2β3γ2 GABAA receptors; after the 15 mg/kg dose): 225%
Estimated potentiation at α2GABAARs (α2β3γ2 GABAA receptors; after the 20 mg/kg dose): 280%
Estimated potentiation at α2GABAARs (α2β3γ2 GABAA receptors; after the dose of 10 mg/kg): 138%
Modulatory activity at α2-containing receptors (α2β3γ2 GABAA receptors; [10]): weakly modulatory
PTZ test, threshold dose of PTZ required to elicit seizures (Wistar rats [4]; 1 mg/kg i.p.): 60.99 ± 6.11 mg/kg PTZ
PTZ test, threshold dose of PTZ required to elicit seizures (Wistar rats [4]; 10 mg/kg i.p.): 50.99 ± 3.72 mg/kg PTZ
PTZ test, effect of treatment (one-way ANOVA) (Wistar rats [4]; 1 and 10 mg/kg i.p.): did not show a statistically significant effect
Estimated potentiation at α3GABAARs (α3β3γ2 GABAA receptors; after the 15 mg/kg dose): 175%
Estimated potentiation at α3GABAARs (α3β3γ2 GABAA receptors; after the 20 mg/kg dose): 200%
Modulatory activity at α3-containing receptors (α3β3γ2 GABAA receptors; [10]): weakly modulatory
Effects (potentiation) on non-α5GABAARs (non-α5GABAARs): ≤ 150%
Total plasma concentration (in vitro metabolic stability) ([5]; 0 min): 0.5556 µM
Total plasma concentration (in vitro metabolic stability) ([5]; 30 min): 0.5402 ± 0.0146 µM
Total plasma concentration (in vitro metabolic stability) ([5]; 60 min): 0.5403 ± 0.0193 µM
Total plasma concentration (in vitro metabolic stability) ([5]; 120 min): 0.5472 ± 0.0007 µM
Total plasma concentration (in vitro metabolic stability) ([5]; 240 min): 0.5374 ± 0.0063 µM
In vitro metabolic stability during incubation in rat plasma ([5]; rat, plasma): excellent in vitro metabolic stability
remaining at 0 h, 0.2 μg/ml ([5]; rat, plasma): 100%
remaining at 0.5 h, 0.2 μg/ml ([5]; rat, plasma): 97.2%
remaining at 1 h, 0.2 μg/ml ([5]; rat, plasma): 97.2%
remaining at 2 h, 0.2 μg/ml ([5]; rat, plasma): 98.5%
remaining at 4 h, 0.2 μg/ml ([5]; rat, plasma): 96.7%
Ki (α3β3γ2S GABAA receptors): 660 ± 170 nM
Brain AUC (0 to 180 min) relative to SH-053-2′F-R-CH3 [6, 11]: 1.75 fold
Plasma AUC (0 to 180 min) relative to SH-053-2′F-R-CH3 [6, 11]: 2 fold
Brain free (estimated) concentration ([6]; rat, 1 mg/kg i.p., 20 min): 6.38 ± 0.80 nmol/kg
Brain free (estimated) concentration ([6]; rat, 2.5 mg/kg i.p., 20 min): 10.34 ± 3.33 nmol/kg
Brain total concentration ([6]; rat, 2.5 mg/kg i.p., 20 min): 156.46 ± 50.33 nmol/kg
Brain free (estimated) concentration ([6]; rat, 10 mg/kg i.p., 20 min): 68.12 ± 18.38 nmol/kg
Brain total concentration ([6]; rat, 10 mg/kg i.p., 20 min): 1030.52 ± 278.03 nmol/kg
Brain free (estimated) concentration ([6]; rat, 15 mg/kg i.p., 20 min): 317.57 ± 186.52 nmol/kg
Brain total concentration ([6]; rat, 15 mg/kg i.p., 20 min): 4804.44 ± 2821.77 nmol/kg
Brain free (estimated) concentration ([6]; rat, 20 mg/kg i.p., 20 min): 559.57 ± 58.58 nmol/kg
Brain total concentration ([6]; rat, 20 mg/kg i.p., 20 min): 8465.45 ± 886.18 nmol/kg
concentration at 20 min ([6]; rat, plasma, ip, 1 mg/kg, Plasma total concentration, 1 mg/kg i.p., 20 min): 62.4 ± 4.97 nM
Activity in 50 other receptor and enzyme assays [7]: negligible activity
Grip strength, peak force of experimenter's pull necessary to overcome the animal's grip (Wistar rats [8]; 1 mg/kg i.p.): 2.57 ± 0.08 kg/kg
Grip strength, peak force of experimenter's pull necessary to overcome the animal's grip (Wistar rats [8]; 2.5 mg/kg i.p.): 2.41 ± 0.28 kg/kg
Grip strength, peak force of experimenter's pull necessary to overcome the animal's grip (Wistar rats [8]; 10 mg/kg i.p.): 1.94 ± 0.22^b,d kg/kg
Grip strength, peak force of experimenter's pull necessary to overcome the animal's grip (Wistar rats [8]; 15 mg/kg i.p.): 1.86 ± 0.16^a kg/kg
Grip strength, peak force of experimenter's pull necessary to overcome the animal's grip (Wistar rats [8]; 20 mg/kg i.p.): 1.78 ± 0.16^c,d kg/kg
Dose at which the first muscle relaxant effect was observed (Wistar rats [8]; i.p., grip strength): 10 mg/kg
Ki (α2β3γ2S GABAA receptors): 360 ± 56 nM
Estimated free concentration as % of Ki value for α2GABAARs (α2β3γ2S GABAA receptors; after the dose of 10 mg/kg): 19%
fraction unbound ([9]; brain tissue): 0.0661
fraction unbound ([9]; plasma): 0.135

Source: article PMC5107132 (European journal of pharmacology, 2016)
